Results taken from ChEMBL document CHEMBL4507275, “Data for DCP probe BI-2545” (2021).

How the values were obtained:
[1] = molecular target: Mitotic checkpoint serine/threonine-protein kinase BUB1 (Homo sapiens) (UniProt O43683); conditions: Compound concentration 1000.0 nM
[2] = molecular target: Receptor tyrosine-protein kinase erbB-2 (Homo sapiens) (UniProt P04626); conditions: Compound concentration 1000.0 nM
[3] = tested on: Tyrosine-protein kinase ABL1 (Homo sapiens), P00519 [Q252H]; conditions: Compound concentration 1000.0 nM
[4] = molecular target: Non-receptor tyrosine-protein kinase TYK2 (Homo sapiens) (UniProt P29597); conditions: Compound concentration 1000.0 nM
[5] = molecular target: Tyrosine-protein kinase JAK1 (Homo sapiens) (UniProt P23458); conditions: Compound concentration 1000.0 nM
[6] = molecular target: Tyrosine-protein kinase Srms (Homo sapiens) (UniProt Q9H3Y6); conditions: Compound concentration 1000.0 nM
[7] = molecular target: Muscle, skeletal receptor tyrosine-protein kinase (Homo sapiens) (UniProt O15146); conditions: Compound concentration 1000.0 nM
[8] = molecular target: Dual specificity mitogen-activated protein kinase kinase 3 (Homo sapiens) (UniProt P46734); conditions: Compound concentration 1000.0 nM
[9] = molecular target: Protein-tyrosine kinase 6 (Homo sapiens) (UniProt Q13882); conditions: Compound concentration 1000.0 nM
[10] = molecular target: Protein kinase C iota type (Homo sapiens) (UniProt P41743); conditions: Compound concentration 1000.0 nM
[11] = molecular target: Phosphorylase b kinase gamma catalytic chain, skeletal muscle/heart isoform (Homo sapiens) (UniProt Q16816); conditions: Compound concentration 1000.0 nM
[12] = molecular target: Serine/threonine-protein kinase TBK1 (Homo sapiens) (UniProt Q9UHD2); conditions: Compound concentration 1000.0 nM
[13] = molecular target: MAP/microtubule affinity-regulating kinase 4 (Homo sapiens) (UniProt Q96L34); conditions: Compound concentration 1000.0 nM
[14] = molecular target: Activin receptor type-2B (Homo sapiens) (UniProt Q13705); conditions: Compound concentration 1000.0 nM
[15] = molecular target: Ribosomal protein S6 kinase alpha-4 (Homo sapiens) (UniProt O75676); conditions: Compound concentration 1000.0 nM
[16] = molecular target: Mitogen-activated protein kinase kinase kinase 12 (Homo sapiens) (UniProt Q12852); conditions: Compound concentration 1000.0 nM
[17] = molecular target: Serine/threonine-protein kinase MRCK alpha (Homo sapiens) (UniProt Q5VT25); conditions: Compound concentration 1000.0 nM
[18] = tested on: Proto-oncogene tyrosine-protein kinase receptor Ret (Homo sapiens), P07949 [V804L]; conditions: Compound concentration 1000.0 nM
[19] = molecular target: Beta-1 adrenergic receptor (Homo sapiens) (UniProt P08588); conditions: Compound concentration 10.0 uM
[20] = tested on: Phosphatidylinositol 4,5-bisphosphate 3-kinase catalytic subunit alpha isoform (Homo sapiens), P42336 [M1043I]; conditions: Compound concentration 1000.0 nM
[21] = molecular target: Proto-oncogene tyrosine-protein kinase ROS (Homo sapiens) (UniProt P08922); conditions: Compound concentration 1000.0 nM
[22] = molecular target: Dual specificity protein kinase CLK3 (Homo sapiens) (UniProt P49761); conditions: Compound concentration 1000.0 nM
[23] = molecular target: Serine/threonine-protein kinase PAK 5 (Homo sapiens) (UniProt Q9P286); conditions: Compound concentration 1000.0 nM
[24] = molecular target: Serine/threonine-protein kinase RIO3 (Homo sapiens) (UniProt O14730); conditions: Compound concentration 1000.0 nM
[25] = molecular target: Hormonally up-regulated neu tumor-associated kinase (Homo sapiens) (UniProt P57058); conditions: Compound concentration 1000.0 nM
[26] = molecular target: Dual specificity mitogen-activated protein kinase kinase 6 (Homo sapiens) (UniProt P52564); conditions: Compound concentration 1000.0 nM
[27] = molecular target: Testis-specific serine/threonine-protein kinase 3 (Homo sapiens) (UniProt Q96PN8); conditions: Compound concentration 1000.0 nM
[28] = molecular target: Tyrosine-protein kinase ZAP-70 (Homo sapiens) (UniProt P43403); conditions: Compound concentration 1000.0 nM
[29] = molecular target: Serine/threonine-protein kinase Nek3 (Homo sapiens) (UniProt P51956); conditions: Compound concentration 1000.0 nM
[30] = molecular target: Testis-specific serine/threonine-protein kinase 1 (Homo sapiens) (UniProt Q9BXA7); conditions: Compound concentration 1000.0 nM
[31] = molecular target: Serine/threonine-protein kinase WNK1 (Homo sapiens) (UniProt Q9H4A3); conditions: Compound concentration 1000.0 nM
[32] = molecular target: D(3) dopamine receptor (Homo sapiens) (UniProt P35462); conditions: Compound concentration 10.0 uM
[33] = molecular target: Tyrosine-protein kinase Tec (Homo sapiens) (UniProt P42680); conditions: Compound concentration 1000.0 nM
[34] = molecular target: Phosphatidylinositol 4-phosphate 5-kinase type-1 alpha (Homo sapiens) (UniProt Q99755); conditions: Compound concentration 1000.0 nM
[35] = molecular target: SRSF protein kinase 3 (Homo sapiens) (UniProt Q9UPE1); conditions: Compound concentration 1000.0 nM
[36] = molecular target: Tyrosine-protein kinase receptor UFO (Homo sapiens) (UniProt P30530); conditions: Compound concentration 1000.0 nM
[37] = molecular target: Homeodomain-interacting protein kinase 4 (Homo sapiens) (UniProt Q8NE63); conditions: Compound concentration 1000.0 nM
[38] = molecular target: Serine/threonine-protein kinase PLK3 (Homo sapiens) (UniProt Q9H4B4); conditions: Compound concentration 1000.0 nM
[39] = molecular target: Serine/threonine-protein kinase tousled-like 2 (Homo sapiens) (UniProt Q86UE8); conditions: Compound concentration 1000.0 nM
[40] = molecular target: Serine/threonine-protein kinase Nek11 (Homo sapiens) (UniProt Q8NG66); conditions: Compound concentration 1000.0 nM
[41] = molecular target: Microtubule-associated serine/threonine-protein kinase 1 (Homo sapiens) (UniProt Q9Y2H9); conditions: Compound concentration 1000.0 nM
[42] = molecular target: Aurora kinase B (Homo sapiens) (UniProt Q96GD4); conditions: Compound concentration 1000.0 nM
[43] = molecular target: Cyclin-dependent kinase 14 (Homo sapiens) (UniProt O94921); conditions: Compound concentration 1000.0 nM

Tyrosine-protein kinase receptor UFO (Homo sapiens), sequence (P30530 whole entry): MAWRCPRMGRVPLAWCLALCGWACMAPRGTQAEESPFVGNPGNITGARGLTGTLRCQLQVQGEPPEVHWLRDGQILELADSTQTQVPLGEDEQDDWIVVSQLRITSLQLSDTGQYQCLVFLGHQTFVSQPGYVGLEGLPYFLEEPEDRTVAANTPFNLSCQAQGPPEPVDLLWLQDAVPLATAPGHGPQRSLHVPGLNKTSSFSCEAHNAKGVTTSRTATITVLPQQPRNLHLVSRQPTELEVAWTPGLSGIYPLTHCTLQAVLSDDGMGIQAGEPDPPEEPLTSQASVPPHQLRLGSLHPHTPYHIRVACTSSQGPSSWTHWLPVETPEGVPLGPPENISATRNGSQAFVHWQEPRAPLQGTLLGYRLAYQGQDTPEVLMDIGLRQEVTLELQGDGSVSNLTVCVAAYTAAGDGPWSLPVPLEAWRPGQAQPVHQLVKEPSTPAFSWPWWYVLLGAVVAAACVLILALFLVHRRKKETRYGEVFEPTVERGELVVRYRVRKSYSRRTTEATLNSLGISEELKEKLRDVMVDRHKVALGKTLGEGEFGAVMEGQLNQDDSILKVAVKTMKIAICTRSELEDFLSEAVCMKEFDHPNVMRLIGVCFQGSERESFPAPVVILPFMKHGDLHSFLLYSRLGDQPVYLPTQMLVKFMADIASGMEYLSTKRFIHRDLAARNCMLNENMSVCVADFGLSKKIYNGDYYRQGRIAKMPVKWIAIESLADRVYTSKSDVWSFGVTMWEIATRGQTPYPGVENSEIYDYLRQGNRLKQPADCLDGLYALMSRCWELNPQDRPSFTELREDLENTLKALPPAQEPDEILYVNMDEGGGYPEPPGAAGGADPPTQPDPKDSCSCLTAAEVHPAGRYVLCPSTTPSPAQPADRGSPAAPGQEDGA
Testis-specific serine/threonine-protein kinase 1 (Homo sapiens), sequence (Q9BXA7 whole entry): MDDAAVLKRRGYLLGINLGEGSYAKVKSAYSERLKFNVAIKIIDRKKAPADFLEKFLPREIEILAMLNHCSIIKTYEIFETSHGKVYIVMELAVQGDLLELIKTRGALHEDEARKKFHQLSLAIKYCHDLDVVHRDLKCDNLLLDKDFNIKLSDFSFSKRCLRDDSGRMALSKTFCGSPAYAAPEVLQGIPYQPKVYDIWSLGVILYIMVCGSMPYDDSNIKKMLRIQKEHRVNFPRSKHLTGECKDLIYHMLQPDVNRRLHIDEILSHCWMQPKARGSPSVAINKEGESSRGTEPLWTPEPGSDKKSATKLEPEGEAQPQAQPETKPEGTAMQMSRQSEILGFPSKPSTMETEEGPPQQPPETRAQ
Serine/threonine-protein kinase RIO3 (Homo sapiens), sequence (O14730 whole entry): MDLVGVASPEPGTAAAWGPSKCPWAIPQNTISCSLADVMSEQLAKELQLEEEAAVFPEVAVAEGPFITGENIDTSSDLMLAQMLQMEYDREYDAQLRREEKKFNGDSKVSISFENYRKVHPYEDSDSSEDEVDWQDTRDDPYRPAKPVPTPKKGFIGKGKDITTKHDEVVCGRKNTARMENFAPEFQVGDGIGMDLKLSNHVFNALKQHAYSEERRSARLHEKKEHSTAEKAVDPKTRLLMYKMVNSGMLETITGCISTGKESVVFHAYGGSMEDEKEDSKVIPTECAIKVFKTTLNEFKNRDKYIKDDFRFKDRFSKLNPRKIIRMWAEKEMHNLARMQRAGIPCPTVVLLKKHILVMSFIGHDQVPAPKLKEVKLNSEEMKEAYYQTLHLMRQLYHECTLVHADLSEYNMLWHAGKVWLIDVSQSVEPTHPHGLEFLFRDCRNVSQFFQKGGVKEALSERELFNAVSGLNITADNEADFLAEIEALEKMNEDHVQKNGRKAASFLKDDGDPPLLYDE
Ribosomal protein S6 kinase alpha-4 (Homo sapiens), sequence (O75676 whole entry, looked up): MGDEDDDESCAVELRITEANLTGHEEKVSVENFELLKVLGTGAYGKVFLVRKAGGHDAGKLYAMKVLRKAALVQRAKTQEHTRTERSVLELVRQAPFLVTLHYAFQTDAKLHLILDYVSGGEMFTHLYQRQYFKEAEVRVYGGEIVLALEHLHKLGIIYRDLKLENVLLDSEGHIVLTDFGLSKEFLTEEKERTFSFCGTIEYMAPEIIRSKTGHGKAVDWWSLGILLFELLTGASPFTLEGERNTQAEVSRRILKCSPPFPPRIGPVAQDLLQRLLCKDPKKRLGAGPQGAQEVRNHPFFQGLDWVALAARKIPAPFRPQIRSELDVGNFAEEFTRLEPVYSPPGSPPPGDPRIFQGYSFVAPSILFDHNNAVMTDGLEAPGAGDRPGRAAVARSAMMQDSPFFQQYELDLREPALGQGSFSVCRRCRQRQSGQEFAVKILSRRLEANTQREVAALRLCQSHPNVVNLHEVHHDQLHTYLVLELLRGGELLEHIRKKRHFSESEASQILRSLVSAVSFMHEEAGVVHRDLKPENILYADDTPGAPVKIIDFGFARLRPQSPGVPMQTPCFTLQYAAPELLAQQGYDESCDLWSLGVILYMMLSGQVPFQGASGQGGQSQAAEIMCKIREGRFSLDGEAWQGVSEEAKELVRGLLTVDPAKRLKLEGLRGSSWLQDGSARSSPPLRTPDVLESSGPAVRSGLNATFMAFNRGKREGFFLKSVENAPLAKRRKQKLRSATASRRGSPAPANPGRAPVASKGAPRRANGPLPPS
Proto-oncogene tyrosine-protein kinase ROS (Homo sapiens), sequence (P08922 whole entry): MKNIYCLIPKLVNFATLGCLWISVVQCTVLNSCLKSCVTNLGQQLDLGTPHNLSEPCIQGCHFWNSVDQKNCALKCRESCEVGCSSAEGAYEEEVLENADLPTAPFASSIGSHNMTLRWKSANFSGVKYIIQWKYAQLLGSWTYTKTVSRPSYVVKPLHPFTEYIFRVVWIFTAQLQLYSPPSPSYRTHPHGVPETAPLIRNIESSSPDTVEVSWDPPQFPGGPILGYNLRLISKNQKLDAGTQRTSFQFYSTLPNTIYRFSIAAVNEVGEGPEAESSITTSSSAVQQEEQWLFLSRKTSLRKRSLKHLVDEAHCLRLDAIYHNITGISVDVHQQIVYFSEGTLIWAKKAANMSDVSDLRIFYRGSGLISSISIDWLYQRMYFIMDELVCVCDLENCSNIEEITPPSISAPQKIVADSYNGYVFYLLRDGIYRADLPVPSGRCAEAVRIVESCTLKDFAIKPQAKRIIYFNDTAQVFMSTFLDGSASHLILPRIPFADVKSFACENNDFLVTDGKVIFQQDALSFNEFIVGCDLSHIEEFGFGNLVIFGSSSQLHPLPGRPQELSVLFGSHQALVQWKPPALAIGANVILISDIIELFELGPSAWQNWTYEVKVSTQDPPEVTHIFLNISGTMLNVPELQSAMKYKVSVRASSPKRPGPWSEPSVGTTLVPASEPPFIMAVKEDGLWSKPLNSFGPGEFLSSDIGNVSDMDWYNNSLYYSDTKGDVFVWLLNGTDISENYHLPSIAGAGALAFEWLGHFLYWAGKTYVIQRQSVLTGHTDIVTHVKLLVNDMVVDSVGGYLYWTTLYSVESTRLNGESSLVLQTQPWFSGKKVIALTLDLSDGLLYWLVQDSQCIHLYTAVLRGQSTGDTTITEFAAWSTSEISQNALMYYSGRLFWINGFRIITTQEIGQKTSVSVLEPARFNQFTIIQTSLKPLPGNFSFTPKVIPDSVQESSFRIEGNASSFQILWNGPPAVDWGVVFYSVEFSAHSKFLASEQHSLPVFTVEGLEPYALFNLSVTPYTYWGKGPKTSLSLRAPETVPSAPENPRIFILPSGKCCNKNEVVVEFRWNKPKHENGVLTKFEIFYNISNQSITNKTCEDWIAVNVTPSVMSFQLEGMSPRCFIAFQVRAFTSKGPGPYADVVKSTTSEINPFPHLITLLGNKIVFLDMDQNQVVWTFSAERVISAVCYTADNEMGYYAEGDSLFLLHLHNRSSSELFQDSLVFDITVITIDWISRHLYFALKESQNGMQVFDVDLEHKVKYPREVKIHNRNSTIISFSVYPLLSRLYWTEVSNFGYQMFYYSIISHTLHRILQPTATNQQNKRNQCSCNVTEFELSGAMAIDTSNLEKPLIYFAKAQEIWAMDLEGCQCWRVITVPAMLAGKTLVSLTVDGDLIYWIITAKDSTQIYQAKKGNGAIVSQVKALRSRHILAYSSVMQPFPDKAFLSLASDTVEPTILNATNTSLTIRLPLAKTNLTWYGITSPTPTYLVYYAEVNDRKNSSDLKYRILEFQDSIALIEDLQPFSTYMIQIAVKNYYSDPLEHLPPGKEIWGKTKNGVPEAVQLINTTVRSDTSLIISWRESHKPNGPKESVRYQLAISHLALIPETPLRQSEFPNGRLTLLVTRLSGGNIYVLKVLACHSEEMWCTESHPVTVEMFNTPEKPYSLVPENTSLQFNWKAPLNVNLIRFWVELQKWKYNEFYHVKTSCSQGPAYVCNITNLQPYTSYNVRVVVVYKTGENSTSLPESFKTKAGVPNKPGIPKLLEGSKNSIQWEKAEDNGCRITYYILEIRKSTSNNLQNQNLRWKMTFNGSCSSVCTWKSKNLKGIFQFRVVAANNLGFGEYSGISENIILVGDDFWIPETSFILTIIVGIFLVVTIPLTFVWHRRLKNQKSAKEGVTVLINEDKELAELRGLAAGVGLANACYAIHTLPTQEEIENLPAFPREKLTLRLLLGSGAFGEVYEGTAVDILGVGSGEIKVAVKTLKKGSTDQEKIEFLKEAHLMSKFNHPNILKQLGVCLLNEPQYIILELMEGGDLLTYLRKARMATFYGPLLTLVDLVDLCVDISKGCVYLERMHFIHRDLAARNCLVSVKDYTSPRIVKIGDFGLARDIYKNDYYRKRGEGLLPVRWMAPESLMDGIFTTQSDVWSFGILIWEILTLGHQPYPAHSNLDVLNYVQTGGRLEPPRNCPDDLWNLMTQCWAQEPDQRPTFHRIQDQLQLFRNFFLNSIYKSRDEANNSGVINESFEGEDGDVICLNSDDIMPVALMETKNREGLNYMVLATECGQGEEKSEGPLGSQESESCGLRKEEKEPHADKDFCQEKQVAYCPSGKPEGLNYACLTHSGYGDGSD

O=C(NC[C@@H]1[C@H]2CN(C(=O)OCc3cc(C(F)(F)F)cc(C(F)(F)F)c3)C[C@@H]12)c1ccc2[nH]nnc2c1 [BI 2545]
inactive: residual activity [1] 61% | residual activity [2] 100% | residual activity [3] 78% | residual activity [4] 100% | residual activity [5] 89% | residual activity [6] 83% | residual activity [7] 77% | residual activity [8] 93% | residual activity [9] 96% | residual activity [10] 98% | residual activity [11] 92% | residual activity [12] 100% | residual activity [13] 94% | residual activity [14] 100% | residual activity [15] 100% | residual activity [16] 100% | residual activity [17] 100% | residual activity [18] 100% | inhibition [19] 13.3% | residual activity [20] 95% | residual activity [21] 100% | residual activity [22] 78% | residual activity [23] 100% | residual activity [24] 94% | residual activity [25] 100% | residual activity [26] 72% | residual activity [27] 100% | residual activity [28] 60% | residual activity [29] 100% | residual activity [30] 100% | residual activity [31] 90% | inhibition [32] 6.61% | residual activity [33] 100% | residual activity [34] 93% | residual activity [35] 100% | residual activity [36] 87% | residual activity [37] 100% | residual activity [38] 89% | residual activity [39] 90% | residual activity [40] 100% | residual activity [41] 100% | residual activity [42] 84% | residual activity [43] 96%

Cc1nccc(COC(=O)N2C[C@@H]3[C@@H](CNC(=O)c4ccc5[nH]nnc5c4)[C@@H]3C2)n1 [BI 3017]
inactive: residual activity [1] 90% | residual activity [2] 99% | residual activity [3] 100% | residual activity [4] 100% | residual activity [5] 92% | residual activity [6] 87% | residual activity [7] 100% | residual activity [8] 84% | residual activity [9] 100% | residual activity [10] 100% | residual activity [11] 100% | residual activity [12] 96% | residual activity [13] 85% | residual activity [14] 91% | residual activity [15] 100% | residual activity [16] 72% | residual activity [17] 100% | residual activity [18] 100% | inhibition [19] 12.4% | residual activity [20] 100% | residual activity [21] 100% | residual activity [22] 90% | residual activity [23] 92% | residual activity [24] 100% | residual activity [25] 81% | residual activity [26] 100% | residual activity [27] 100% | residual activity [28] 97% | residual activity [29] 100% | residual activity [30] 91% | residual activity [31] 86% | inhibition [32] 1.07% | residual activity [33] 94% | residual activity [34] 100% | residual activity [35] 100% | residual activity [36] 88% | residual activity [37] 84% | residual activity [38] 73% | residual activity [39] 100% | residual activity [40] 88% | residual activity [41] 100% | residual activity [42] 93% | residual activity [43] 100%
